The source of these data is patent publication US20070027118A1 (priority 2005, published 2007).

One may read the Ki as the equilibrium dissociation constant of an inhibitor or competing ligand from its target. Low readings indicate higher affinity, high ones lower affinity.

Test [1] addresses T1, 11β-hsd-1 enzyme (Homo sapiens, UniProt P28845). In words: biochemical. To be noted: read-out: % Inh @ 0.1 mM. The essentials: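 Human 11β-HSD-1 (5 nM) pre-incubated ≥30 min with inhibitor and 500 μM NADPH in triethanolamine buffer pH 8.0 with NaCl, n-dodecyl β-D-maltoside and β-ME; reaction started with G6P/G6PDH/MgCl2 regenerating system and 200 nM 3H-cortisone, run 60 min, stopped with DMSO. 3H-cortisol and substrate separated by radio-HPLC; percent inhibition from peak areas.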

For test [2], the target named is T1, 11β-hsd-1 enzyme. Nature of the test: biochemical. The essentials:
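Enzyme (5 nM) pre-incubated ≥30 min at RT with inhibitor and 500 μM NADPH in triethanolamine buffer pH 8.0; reaction started with glucose-6-phosphate regenerating system and 200 nM 3H-cortisone, stopped with DMSO after 60 min. Product quantified by radio-HPLC; Kiapp from Morrison tight-binding equation.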

T1 sequence (P28845 whole entry, species assumed): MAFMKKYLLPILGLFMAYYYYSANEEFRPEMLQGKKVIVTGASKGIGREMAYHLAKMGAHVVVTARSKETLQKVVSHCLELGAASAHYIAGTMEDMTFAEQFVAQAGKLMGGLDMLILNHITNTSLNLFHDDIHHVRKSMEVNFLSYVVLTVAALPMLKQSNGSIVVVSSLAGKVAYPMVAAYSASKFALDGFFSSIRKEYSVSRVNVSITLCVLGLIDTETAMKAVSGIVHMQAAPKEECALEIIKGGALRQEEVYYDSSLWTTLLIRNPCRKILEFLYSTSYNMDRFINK

Turning to `CCc1cccc(NS(=O)(=O)N2CCN(c3ncc(C(F)(F)F)cc3Cl)CC2)n1` [Example 195, 4-[3-chloro-5-(trifluoromethyl)pyridin-2-yl]-N-(6-ethylpyridin-2-yl)piperazine-1-sulfonamide], on 11β-hsd-1 enzyme [1], the inhibition stood at 92.3%. Also, the Ki at 11β-hsd-1 enzyme [2] worked out at 0.029 µM.

`CCOC(=O)N1CCN(S(=O)(=O)Nc2cccc(CC)n2)CC1` [Example 196, ethyl 4-{[(6-ethylpyridin-2-yl)amino]sulfonyl}piperazine-1-carboxylate]: the inhibition on 11β-hsd-1 enzyme [1] was found to be 85.8%. The affinity on 11β-hsd-1 enzyme [2] corresponds to a Ki of 0.02 µM.

Regarding `CCc1cccc(NS(=O)(=O)N2CCCCCC2)n1` [Example 197, N-(6-ethylpyridin-2-yl)azepane-1-sulfonamide], the inhibition on 11β-hsd-1 enzyme [1] was determined as 79.5%. Also, at 11β-hsd-1 enzyme [2], affinity was put at a Ki of 0.035 µM.

As to `CCc1cccc(NS(=O)(=O)N2CCN(c3ncccc3C(F)(F)F)CC2)n1` [Example 198, N-(6-ethylpyridin-2-yl)-4-[3-(trifluoromethyl)pyridin-2-yl]piperazine-1-sulfonamide], the inhibition at 11β-hsd-1 enzyme [1] came out at 69.1%. For the same compound, at 11β-hsd-1 enzyme [2], the Ki was found to be 0.071 µM.

For `CCc1cccc(NS(=O)(=O)N2CCCN(Cc3ccc(F)cc3)CC2)n1` [Example 200, N-(6-ethylpyridin-2-yl)-4-(4-fluorobenzyl)-14-diazepane-1-sulfonamide], the inhibition on 11β-hsd-1 enzyme [1] is 96.8%. This compound had an inhibition constant Ki on 11β-hsd-1 enzyme [2] of 0.02 µM.

On to `CCc1cccc(NS(=O)(=O)N2CCN(c3ncccc3C#N)CC2)n1` [Example 201, 4-(3-cyanopyridin-2-yl)-N-(6-ethylpyridin-2-yl)piperazine-1-sulfonamide], for which, on 11β-hsd-1 enzyme [1], the inhibition was 83.9%. The compound further had a Ki at 11β-hsd-1 enzyme [2] of 0.033 µM.
